Test results from publication PMC12530850, “Synthesis, antidiabetic evaluation, and computational modeling of 3-acetyl-8-ethoxy coumarin derived hydrazones and thiosemicarbazones” (RSC Advances, 2025).
Values joined by “and” are separate entries in the source; they are usually repeats but may differ in a detail not shown here. Equal entries are not always repeated.

Columns and labels:
[1] = Antioxidant assay (metal chelating, Fe^2+ binding at 522 nm); details: Fe^2+ chelating
Protocol: Fe^2+ chelating ability of novel compounds was predicted according to Dinis et al.[54] with slight modification. Fe^2+-binding capacity of novel compounds was spectrophotometrically recorded at 522 nm. This study was conducted based on previous papers.[55,56]
In this section, we studied the metal chelating method, one of the antioxidant methods for toxicity. To stop the metal ions from serving as catalysts of lipid oxidation, metal-chelating antioxidants are thus added to food products. […] In this study, EDTA was used as a standard.

[2] = molecular target: α-amylase; assay: α-amylase inhibition assay (starch substrate); format: biochemical; details: pH 6.9, 35 °C
Protocol: A 0.4 M starch combination was made in 80 mL of NaOH solution and heated to 80 °C for 30 minutes in order to create the starch. After that, 10 μL of various chemical concentrations were combined with 35 μL of starch solution and 35 μL of phosphate buffer (pH 6.9), and the mixture was incubated for 25 minutes at 35 °C. Finally, the final combination was reincubated for 25 minutes after 20 μL of the α-amylase solution was added. Each tube was filled with 50 μL of HCl (0.1 M) to complete the reactions. At 580 nm, the absorbance was measured. The amount of αamylase needed to release one μmol of reducing sugar, which is estimated to be glucose per minute at pH 6.9 and 40 °C, is known as one α-amylase unit.[52,53]

SMILES | Metal chelating (IC50) [1] [µg/mL] | IC50 [2]
CCOc1cccc2cc(/C(C)=N/NC(=O)c3cccs3)c(=O)oc12 [Compound 3a, (E)-N′-[1-(8-Ethoxy-2-oxo-2H-chromen-3-yl)ethylidene]thiophene-2-carbohydrazide] | >100 | 430 ± 7.6 nM
CCOc1cccc2cc(/C(C)=N/NC(=O)c3ccc(F)cc3)c(=O)oc12 [Compound 3b, (E)-N′-[1-(8-Ethoxy-2-oxo-2H-chromen-3-yl)ethylidene]-4-fluorobenzohydrazide] | >100 | 252 nM and 159 nM
CCOc1cccc2cc(/C(C)=N/NC(=O)c3ccc(Br)cc3)c(=O)oc12 [Compound 3c, (E)-4-Bromo-N′-[1-(8-ethoxy-2-oxo-2H-chromen-3-yl)ethylidene]benzohydrazide] | >100 | 209 ± 12.4 nM
CCOc1cccc2cc(/C(C)=N/NC(=O)c3ccccc3OC)c(=O)oc12 [Compound 3d, (E)-N′-[1-(8-Ethoxy-2-oxo-2H-chromen-3-yl)ethylidene]-2-methoxybenzohydrazide] | >100 | 177 ± 8.25 nM
CCOc1cccc2cc(/C(C)=N/NC(=O)c3cnccn3)c(=O)oc12 [Compound 3e, (E)-N′-[1-(8-Ethoxy-2-oxo-2H-chromen-3-yl)ethylidene]pyrazine-2-carbohydrazide] | >100 | 479 ± 8.7 nM
CCOc1cccc2cc(/C(C)=N/NC(=O)c3c[nH]c4ccccc34)c(=O)oc12 [Compound 3f, (E)-N′-[1-(8-Ethoxy-2-oxo-2H-chromen-3-yl)ethylidene]-1H-indole-3-carbohydrazide] | >100 | 425 ± 11.1 nM
CCOc1cccc2cc(/C(C)=N/NC(=O)c3ccco3)c(=O)oc12 [Compound 3g, (E)-N′-[1-(8-Ethoxy-2-oxo-2H-chromen-3-yl)ethylidene]furan-2-carbohydrazide] | >100 | 189 ± 9.65 nM
COc1cccc2cc(/C(C)=N/NC(=S)NCc3ccccc3)c(=O)oc12 [Compound 5a, (E)-N-Benzyl-2-[1-(8-methoxy-2-oxo-2H-chromen-3-yl)ethylidene]hydrazine-1-carbothioamide] | >100 | 264.5 ± 2.64 nM
COc1cccc2cc(/C(C)=N/NC(=S)Nc3ccc(C)cc3C)c(=O)oc12 [Compound 5b, (E)-N-(2,4-Dimethylphenyl)-2-[1-(8-methoxy-2-oxo-2H-chromen-3-yl)ethylidene] hydrazine-1-carbothioamide] | 58.06 ± 0.08 | 198 ± 6.04 nM
COc1cccc2cc(/C(C)=N/NC(=S)NCc3ccc(C)cc3)c(=O)oc12 [Compound 5c, (E)-2-[1-(8-Methoxy-2-oxo-2H-chromen-3-yl)ethylidene]-N-(4-methylbenzyl) hydrazine-1-carbothioamide] | 43.55 ± 0.10 | 128 ± 2.82 nM
COc1cccc2cc(/C(C)=N/NC(=S)NCC(C)C)c(=O)oc12 [Compound 5d, (E)-N-Isobutyl-2-[1-(8-methoxy-2-oxo-2H-chromen-3-yl)ethylidene]hydrazine-1-carbothioamide] | 50.38 ± 0.04 | 237 ± 3.43 nM
COc1cccc2cc(/C(C)=N/NC(N)=S)c(=O)oc12 [Compound 5e, (E)-2-[1-(8-Methoxy-2-oxo-2H-chromen-3-yl)ethylidene]hydrazine-1-carbothioamide] | 35.96 ± 0.52 | 146 ± 7.35 nM
O=C(O)CN(CCN(CC(=O)O)CC(=O)O)CC(=O)O [EDTA, Ethylenediaminetetraacetic acid, reference compound] | 66.82 ± 0.40 | –
